Source: article PMC11206297, “Targeting NAD Metabolism: Rational Design, Synthesis and In Vitro Evaluation of NAMPT/PARP1 Dual-Target Inhibitors as Anti-Breast Cancer Agents” (Molecules, 2024)
Read-outs that look alike come from different tables or passages of the source.

Assays:
PARP1 [1] = target: T1, PARP1 (Homo sapiens, UniProt P09874); set-up: method as in PMID 18579376, PMID 18800822, PMID 24388690, PMID 28340412, PMID 36183505; settings: in figure; cited from earlier work
NAMPT = NAMPT (Homo sapiens, UniProt P43490); assay: NAMPT enzymatic inhibition assay (fluorescence, coupled NMNAT/alcohol dehydrogenase); assay type: biochemical; settings: for inhibition at 0.1 µM / NAMPT Inhibition Rate: duplicate, average, 0.1 μM; for inhibition at 0.1 µM: read-out: NAMPT Inhibition Rate; for IC50: mean ± SD of at least two independent experiments in duplicate
PARP1 [2] = target: T1, PARP1; assay: PARP1 enzymatic inhibition assay (ELISA, chemiluminescence); assay type: biochemical; settings: for IC50: mean ± SD of at least two independent experiments in duplicate; for inhibition at 0.5 µM: duplicate, average, read-out: PARP1 Inhibition Rate
MDA-MB-231 = assay: MTT cell viability assay, MDA-MB-231; assay type: cell-based; settings: Homo sapiens, 72 h, mean ± SEM, read-out: Cytotoxicity IC50 MDA-MB-231
Procedure: (§1) MDA-MB-468, MDA-MB-231, MCF-7, and MCF-10A cell lines were obtained from the National Collection of Authenticated Cell Culture, China. The cells were cultured in DMEM medium supplemented with 10% FBS and 1% penicillin/streptomycin, and maintained at 37 °C in a humidified atmosphere with 5% CO2.
(§2) Cell viability was assessed using the MTT assay. Cells were seeded at a density of 3 × 10^3 cells per well in a 96-well plate and treated with various concentrations (0.05, 0.2, 0.8, 3.2, 6.4, 12.8 µM) of the compounds for 72 h. After incubation, 100 µL of MTT solution (0.5 mg/mL) was added to each well and further incubated for 4 h. The resulting formazan crystals were dissolved in 150 µL of DMSO, and the absorbance was measured at 570 nm using a microplate reader.

MDA-MB-468 = assay: MTT cell viability assay, MDA-MB-468; assay type: cell-based; settings: Homo sapiens, 72 h, mean ± SEM, read-out: Cytotoxicity IC50 MDA-MB-468
Procedure: as §1, §2

MCF-7 = assay: MTT cell viability assay, MCF-7; assay type: cell-based; settings: Homo sapiens, MCF7, 72 h, mean ± SEM, read-out: Cytotoxicity IC50 MCF-7
Procedure: as §1, §2

MCF-10A = assay: MTT cell viability assay, MCF-10A normal breast epithelial cells; assay type: cell-based, human; settings: for viability at 3 µM: Homo sapiens, 72 h, MCF-10A, mean ± SEM, read-out: Cell Survival Rate
Procedure: as §1, §2

[3] = MTT cell viability assay, MCF-10A normal breast epithelial cells; assay type: cell-based, human; settings: human, MCF-10A normal breast epithelial cells; MCF-10A; mean ± SEM; read-out: Cytotoxicity IC50
Procedure: as §1, §2

MDA-MB-468 cells [4] = assay: NMN rescue of cytotoxicity; assay type: cell-based; settings: 200 μM NMN
Description: NMN is the direct product of the NAMPT-catalyzed reaction. Excessive NMN can counteract the inhibitory effect of NAMPT inhibition. […] The reversal of DDY02’s efficacy by NMN underscores the compound’s mechanism of action and confirms the critical role of NAMPT inhibition in mediating its therapeutic effects. This observation also emphasizes the potential of NMN as a modulator in therapeutic scenarios involving NAMPT-targeted treatments.

MDA-MB-468 cells [5] = assay: Western blot of γ-H2AX; assay type: cell-based; settings: 24 h, 1 μM
Procedure: (§3) Cells were then lysed using RIPA buffer supplemented with protease and phosphatase inhibitors. Protein concentrations were determined using the BCA Protein Assay Kit (Thermo Fisher Scientific^TM, Waltham, MA, USA). Equal amounts of protein (20–30 µg) were separated by SDS-polyacrylamide gel electrophoresis and transferred to a polyvinylidene fluoride (PVDF) membrane. The membrane was blocked with 5% milk in PBS before incubation with primary antibodies. Primary antibodies against γ-H2AX (Cell Signaling Technology™, Danvers, MA, USA), BCL2 (Abcam™, Cambridge, UK), and β-actin (Proteintech™, Rosemont, IL, USA) were used. After overnight incubation at 4 °C, membranes were washed and incubated with HRP-conjugated secondary antibodies for 1 h. Protein bands were visualized using ECL reagents (Labgic Technology^TM, Beijing, China).

MDA-MB-468 cells [6] = assay: Western blot of BCL2; assay type: cell-based; settings: 24 h, 1 μM
Procedure: as §3

MDA-MB-468 cells [7] = assay: Wound scratch cell migration assay; assay type: cell-based; settings: 1 μM, up to 48 h
Procedure: MDA-MB-468 cells were plated in 6-well plates at a density of 5 × 10^5 cells/well and allowed to incubate overnight. A scratch was carefully generated in the cell monolayer using a 10 µL pipette tip. […] Images were acquired at 0, 12, 24, and 48 h time points to monitor and analyze the migration of cells over the specified intervals.

MDA-MB-468 cells [8] = assay: Cellular NAD level determination (NAD+/NADH WST-8 kit); assay type: cell-based; settings: 24 h, 1 μM
Procedure: According to the manufacturer’s instructions, an NAD^+/NADH Assay kit with WST-8 (Beyotime, China) was used to measure the intracellular NAD level. The cells collected by centrifugation were added to NAD^+/NADH lysis buffer to obtain a cell lysate. After adding […] working solution, the lysate was incubated at 37 °C for 10 min, and then followed by the addition of color-developing solution. The total concentration of NADH and NAD can be measured by detecting the absorbance at 450 nm. To measure the concentration of NADH, the cell lysate was incubated at 60 °C for 30 min before adding […] working solution. Finally, the NAD content is obtained by the subtraction [NAD^+] = [NADH + NAD^+] − [NADH].

T1 sequence (P09874 whole entry): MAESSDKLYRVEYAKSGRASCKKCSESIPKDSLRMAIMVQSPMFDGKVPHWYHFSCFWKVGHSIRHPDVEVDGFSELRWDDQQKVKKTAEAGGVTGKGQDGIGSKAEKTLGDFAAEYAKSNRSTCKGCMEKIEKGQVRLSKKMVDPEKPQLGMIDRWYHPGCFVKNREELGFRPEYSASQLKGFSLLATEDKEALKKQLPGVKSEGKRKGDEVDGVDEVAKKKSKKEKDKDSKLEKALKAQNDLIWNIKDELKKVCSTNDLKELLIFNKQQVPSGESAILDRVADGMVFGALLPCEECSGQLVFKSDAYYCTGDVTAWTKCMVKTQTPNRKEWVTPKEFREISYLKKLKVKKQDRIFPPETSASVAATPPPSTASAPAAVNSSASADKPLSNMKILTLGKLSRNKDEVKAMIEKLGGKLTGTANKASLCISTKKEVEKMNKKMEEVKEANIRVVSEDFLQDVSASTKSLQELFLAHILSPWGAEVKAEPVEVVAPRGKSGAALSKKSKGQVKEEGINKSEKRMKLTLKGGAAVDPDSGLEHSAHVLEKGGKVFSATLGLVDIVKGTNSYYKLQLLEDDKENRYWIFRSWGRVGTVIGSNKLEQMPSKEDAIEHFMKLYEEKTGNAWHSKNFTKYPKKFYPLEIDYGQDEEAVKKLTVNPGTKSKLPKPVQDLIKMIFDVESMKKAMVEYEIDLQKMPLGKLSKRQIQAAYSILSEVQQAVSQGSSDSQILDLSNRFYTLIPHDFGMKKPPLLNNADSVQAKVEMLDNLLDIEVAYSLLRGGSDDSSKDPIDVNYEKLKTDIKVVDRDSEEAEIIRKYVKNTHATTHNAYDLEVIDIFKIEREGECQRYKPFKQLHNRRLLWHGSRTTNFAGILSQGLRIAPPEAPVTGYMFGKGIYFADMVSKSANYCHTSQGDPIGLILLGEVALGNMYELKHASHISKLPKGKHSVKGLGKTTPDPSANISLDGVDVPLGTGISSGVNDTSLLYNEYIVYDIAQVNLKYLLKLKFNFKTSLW
Chain of NAMPT (P43490 whole entry): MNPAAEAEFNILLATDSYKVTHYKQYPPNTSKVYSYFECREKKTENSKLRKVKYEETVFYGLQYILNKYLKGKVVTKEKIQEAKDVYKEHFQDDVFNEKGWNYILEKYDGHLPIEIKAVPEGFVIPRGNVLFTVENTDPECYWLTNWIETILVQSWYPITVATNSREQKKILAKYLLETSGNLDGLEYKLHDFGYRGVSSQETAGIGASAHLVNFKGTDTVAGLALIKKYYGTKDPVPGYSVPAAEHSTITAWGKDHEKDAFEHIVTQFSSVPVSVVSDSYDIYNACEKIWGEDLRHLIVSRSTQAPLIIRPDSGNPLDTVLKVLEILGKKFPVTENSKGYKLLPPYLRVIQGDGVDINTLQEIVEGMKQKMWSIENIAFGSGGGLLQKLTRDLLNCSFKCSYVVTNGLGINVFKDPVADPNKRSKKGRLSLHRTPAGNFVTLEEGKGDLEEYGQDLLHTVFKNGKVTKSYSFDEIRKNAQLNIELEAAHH

SMILES	IC50 (PARP1 [1]) [µM]	inhibition at 0.1 µM (NAMPT) [%]	IC50 (PARP1 [2]) [µM]	fold decrease in inhibitory capacity against PARP1 compared to Olaparib (PARP1 [2]; ratio of IC50 values) [fold]	IC50 (MDA-MB-231) [µM]	IC50 (MDA-MB-468) [µM]	IC50 (MCF-7) [µM]	viability at 3 µM (MCF-10A) [%]	melting point [°C]	IC50 (NAMPT) [µM]	NAMPT Inhibition Rate (NAMPT) [%]	inhibition at 0.5 µM (PARP1 [2]) [%]	IC50 at 72 h [3] [µM]	cytotoxic effects after preincubation with NMN (MDA-MB-468 cells [4])	accumulation of γ-H2AX (MDA-MB-468 cells [5])	BCL2 expression (MDA-MB-468 cells [6])	inhibitory effect on cell migration (MDA-MB-468 cells [7])	selectivity of cytotoxic activity between breast cancer cells and normal cells (MCF-10A) (MCF-10A; comparison of Tables 2 and 3)	cellular NAD levels (MDA-MB-468 cells [8])
NC(=O)c1ccccc1OCc1ccc(F)c(C(=O)N2CCN(C(=O)C3CCCC3)CC2)c1 [Compound 16]	0.061																		
O=C(c1cc(Cc2n[nH]c(=O)c3ccccc23)ccc1F)N1CCN(S(=O)(=O)c2ccc(NC(=S)NCc3cccnc3)cc2)CC1 [DDY01, 1-(4-((4-(2-Fluoro-5-((4-oxo-3,4-dihydrophthalazin-1-yl)methyl)benzoyl)piperazin-1-yl)sulfonyl)phenyl)-3-(pyridin-3-ylmethyl)thiourea]		83	0.009 ± 0.002	4.5	6.17 ± 0.27	5.09 ± 0.09	8.48 ± 0.18	67.1 ± 1.73	189 to 190										
O=C(NCc1cccnc1)Nc1ccc(S(=O)(=O)N2CCN(C(=O)CCc3nc4ccccc4c(=O)[nH]3)CC2)cc1 [DDY03, 1-(4-((4-(3-(4-Oxo-3,4-dihydroquinazolin-2-yl)propanoyl)piperazin-1-yl)sulfonyl)phenyl)-3-(pyridin-3-ylmethyl)urea]			0.025 ± 0.007		10.9 ± 0.68	8.17 ± 0.31	11.2 ± 0.79	80.7 ± 1.5	120 to 121	0.055 ± 0.019									
NC(=O)c1ccccc1OCc1ccc(F)c(C(=O)N2CCN(S(=O)(=O)c3ccc(NC(=S)NCc4cccnc4)cc3)CC2)c1 [DDY04, 2-((4-Fluoro-3-(4-((4-(3-(pyridin-3-ylmethyl)thioureido)phenyl)sulfonyl)piperazine-1-carbonyl)benzyl)oxy)benzamide]		84 to 86			13.5 ± 0.66	14.1 ± 0.3	13.4 ± 2.41	98.4 ± 1.74	125 to 126		84	70							
NC(=O)c1ccccc1OCc1ccc(F)c(C(=O)N2CCN(S(=O)(=O)c3ccc(NC(=O)NCc4cccnc4)cc3)CC2)c1 [DDY05, 2-((4-Fluoro-3-(4-((4-(3-(pyridin-3-ylmethyl)ureido)phenyl)sulfonyl)piperazine-1-carbonyl)benzyl)oxy)benzamide]		84 to 86			10.2 ± 0.29	8.02 ± 0.74	> 20	88.7 ± 2.41	119 to 120		86								
NC(=O)c1ccccc1OCc1ccc(F)c(C(=O)N2CCN(S(=O)(=O)Cc3ccc(NC(=O)NCc4cccnc4)cc3)CC2)c1 [DDY06, 2-((4-Fluoro-3-(4-((4-(3-(pyridin-3-ylmethyl)ureido)benzyl)sulfonyl)piperazine-1-carbonyl)benzyl)oxy)benzamide]		48			15.4 ± 2.15	17.2 ± 1.57	7.95 ± 0.34	69.5 ± 2.56				89							
NC(=O)c1cc(F)ccc1OCc1ccc(F)c(C(=O)N2CCN(S(=O)(=O)c3ccc(NC(=O)NCc4cccnc4)cc3)CC2)c1 [DDY07, 5-Fluoro-2-((4-fluoro-3-(4-((4-(3-(pyridin-3-ylmethyl)ureido)phenyl)sulfonyl)piperazine-1-carbonyl)benzyl)oxy)benzamide]		84			8.1 ± 0.71	7.43 ± 0.23	13.5 ± 0.16	70.73 ± 0.07	122 to 123			92							
NC(=O)c1ccccc1OCc1cccc(C(=O)N2CCN(S(=O)(=O)c3ccc(NC(=O)NCc4cccnc4)cc3)CC2)c1 [DDY08, 2-((3-(4-((4-(3-(Pyridin-3-ylmethyl)ureido)phenyl)sulfonyl)piperazine-1-carbonyl)benzyl)oxy)benzamide]		80			11.1 ± 0.19	12.9 ± 1.69	9.18 ± 0.44	72.6 ± 3.46	202 to 203			69							
NC(=O)c1cc(F)ccc1OCc1cccc(C(=O)N2CCN(S(=O)(=O)c3ccc(NC(=O)NCc4cccnc4)cc3)CC2)c1 [DDY09, 5-Fluoro-2-((3-(4-((4-(3-(pyridin-3-ylmethyl)ureido)phenyl)sulfonyl)piperazine-1-carbonyl)benzyl)oxy)benzamide]		86			8.7 ± 0.24	6.98 ± 0.57	11 ± 0.82	66.9 ± 2.45	147 to 148			78							
NC(=O)c1cccc2[nH]c(C(=O)N3CCN(S(=O)(=O)c4ccc(NC(=S)NCc5cccnc5)cc4)CC3)nc12 [DDY10, 2-(4-((4-(3-(Pyridin-3-ylmethyl)thioureido)phenyl)sulfonyl)piperazine-1-carbonyl)-1H-benzo[d]imidazole-4-carboxamide]		7			4.45 ± 0.29	6.74 ± 0.16	8.83 ± 0.31	96.9 ± 1.71	> 250			55							
NC(=O)c1cccc2[nH]c(C(=O)N3CCN(S(=O)(=O)c4ccc(NC(=O)NCc5cccnc5)cc4)CC3)nc12 [DDY11, 2-(4-((4-(3-(Pyridin-3-ylmethyl)ureido)phenyl)sulfonyl)piperazine-1-carbonyl)-1H-benzo[d]imidazole-4-carboxamide]			0.014 ± 0.003		13.8 ± 0.33	12.2 ± 1.39	7.39 ± 0.34	82.15 ± 0.21	> 250	0.034 ± 0.009									
O=C(/C=C/c1cccnc1)NCCCCC1CCN(C(=O)c2ccccc2)CC1 [FK866, reference compound]					3.83 ± 0.12	4.01 ± 0.21	5.8 ± 0.86	65.49 ± 0.41					4.41 ± 0.22	reversed the cytotoxic effects	promoted the accumulation of γ-H2AX	no effect on the expression of BCL2	weakest inhibitory activity		
O=C(c1cc(Cc2n[nH]c(=O)c3ccccc23)ccc1F)N1CCN(C(=O)C2CC2)CC1 [Olaparib, reference compound]					6.74 ± 0.08	6.19 ± 0.09	8.68 ± 0.81	91.8 ± 1.78					9.61 ± 0.77			significantly inhibited the expression of the BCL2 protein	most robust inhibitory effect	no selectivity	did not alter intracellular NAD levels compared to the control
